From ChEMBL document CHEMBL4024731, “Cytotoxic steroidal saponins from Trillium kamtschaticum” (Bioorg Med Chem Lett, 2017) come the findings set out here.

Some results are limits rather than exact numbers.

This experiment has as its system HCT-116. Nature of the experiment: Cytotoxicity against human HCT116 cells after 48 hrs by MTT assay. Conditions: HCT-116, 48 h. Type of experiment: functional, cell-based.
In turn, `CC(=O)OC[C@H]1[C@@H]2C3=C(C(=O)[C@@H]2O[C@@]12OC[C@H](C)[C@@H](O)[C@@H]2O)[C@@H]1CC=C2C[C@@H](O)C[C@@H](O[C@@H]4OC[C@H](O)[C@H](O)[C@H]4O[C@@H]4O[C@@H](C)[C@H](OC(C)=O)[C@@H](O[C@@H]5OC[C@](O)(CO)[C@H]5O)[C@H]4O)[C@]2(C)[C@H]1CC3` registered an IC50 of 4.92 µM.

`C/C(C(=O)CC[C@@H](C)CO[C@@H]1O[C@H](CO)[C@@H](O)[C@H](O)[C@H]1O)=C1/C(=O)C[C@H]2[C@@H]3CC=C4C[C@@H](O[C@@H]5O[C@H](CO)[C@@H](O[C@@H]6O[C@@H](C)[C@H](O)[C@@H](O)[C@H]6O)[C@H](O)[C@H]5O)CC[C@]4(C)[C@H]3CC[C@]12C` gave an IC50 of 17.3 µM.

`CC(=O)O[C@H]1[C@@H](C)CO[C@@]2(O[C@H]3C(=O)C4=C(CC[C@H]5[C@H]4CC=C4C[C@@H](O)C[C@@H](O[C@@H]6OC[C@H](O)[C@H](O[C@@H]7OC[C@@H](O)[C@H](O)[C@H]7O)[C@H]6O[C@@H]6O[C@@H](C)[C@H](O)[C@@H](O[C@@H]7OC[C@](O)(CO)[C@H]7O)[C@H]6O)[C@@]45C)[C@H]3[C@@H]2CO)[C@H]1O` returned an IC50 of 5.84 µM.

The compound `CC1=C2[C@](O)(C[C@H]3[C@@H]4CC=C5C[C@@H](O[C@@H]6O[C@H](CO)[C@@H](O[C@@H]7O[C@@H](C)[C@H](O)[C@@H](O)[C@H]7O)[C@H](O)[C@H]6O[C@@H]6O[C@@H](C)[C@H](O)[C@@H](O)[C@H]6O)CC[C@]5(C)[C@H]4CC[C@]23C)[C@@H](C[C@@H](C)CO[C@@H]2O[C@H](CO)[C@@H](O)[C@H](O)[C@H]2O)C1=O` returned an IC50 of more than 40 µM.

Regarding `Cc1c(CCC(C)CO)ccc2c1[C@@]1(C)CC[C@H]3[C@@H](CC=C4C[C@@H](O[C@@H]5O[C@H](CO)[C@@H](O)[C@H](O)[C@H]5O[C@@H]5O[C@@H](C)[C@H](O)[C@@H](O)[C@H]5O)CC[C@@]43C)[C@@H]1C2` (stereo not given in full), the IC50 is more than 40 µM.

Compound `C[C@@H]1O[C@@H](O[C@H]2[C@H](O[C@H]3CC[C@@]4(C)C(=CC[C@@H]5[C@@H]4CC[C@]4(C)C(=O)OC[C@@H]54)C3)O[C@H](CO)[C@@H](O)[C@@H]2O)[C@H](O)[C@H](O)[C@H]1O` yielded an IC50 of more than 40 µM.

`COC(=O)/C(C)=C1\C(=O)C[C@H]2[C@@H]3CC=C4C[C@@H](O[C@@H]5O[C@H](CO)[C@@H](O)[C@H](O)[C@H]5O[C@@H]5O[C@@H](C)[C@H](O)[C@@H](O)[C@H]5O)CC[C@]4(C)[C@H]3CC[C@]12C`: the IC50 is more than 40 µM.

With `CC(=O)OC[C@H]1[C@@H]2C3=C(C(=O)[C@@H]2O[C@@]12OC[C@H](C)[C@@H](O)[C@@H]2O)[C@@H]1CC=C2C[C@@H](O)C[C@@H](O[C@@H]4OC[C@H](O)[C@H](O[C@@H]5OC[C@@H](O)[C@H](O)[C@H]5O)[C@H]4O[C@@H]4O[C@@H](C)[C@H](O)[C@@H](O[C@@H]5OC[C@](O)(CO)[C@H]5O)[C@H]4O)[C@]2(C)[C@H]1CC3`, the IC50 amounted to 22.5 µM.

Compound `C/C(C(=O)CC[C@@H](C)CO[C@@H]1O[C@H](CO)[C@@H](O)[C@H](O)[C@H]1O)=C1/C(=O)C[C@H]2C3CC=C4C[C@@H](O[C@@H]5O[C@H](CO)[C@@H](O)[C@H](O)[C@H]5O[C@@H]5O[C@@H](C)[C@H](O)[C@@H](O)[C@H]5O)CC[C@]4(C)[C@H]3CC[C@]12C` (single isomer, unassigned) came in with an IC50 of 12.7 µM.

On to `CC[C@@]1(O)C(=O)OCc2c1cc1n(c2=O)Cc2cc3ccccc3nc2-1` [CAMPTOTHECIN], for which the concentration for half-maximal inhibition (IC50) came to 0.0115 µM.
